Assay results published in patent US11648199B2 (AI Therapeutics, Inc, priority 2014, dated 2023).
“Also recorded” adds a separate entry of the source. Where two headings read alike, the source gives them in different places.

Experiments:
[1] = Lung concentration of rapamycin after inhalation, Study Day 1; assay type: in vivo, Sprague-Dawley rats
Text: The results of this initial study were replicated and expanded in additional rat studies and dog studies. […] Two sets of animals were used to perform the toxicokinetic measurements for this study.

[2] = 28-day repeat dose inhalation toxicokinetics, study 7300227; assay type: in vivo, Beagle dogs; settings: for concentration at 24 h: Beagle, dog, lung, read-out: Lung 24 hr trough levels; for Blood trough levels / Max blood levels: average of D28
Text: For the dog study, a positive flow delivery system (PFDS) consisting of a central plenum and delivery arms was utilized. The central plenum was of modular design with separate ports into which were attached 5 delivery arms fitted with oronasal exposure masks fitted with inlet and outlet tubes. The mask was fitted over the dog's muzzle in such a way that the nose was inside the mask, allowing entrance and exit of air. During exposure, animals wore a harness and were placed on a restraint platform. The harness was attached to two side poles on the platform in order to restrict lateral movement of the dog. The front part of the harness was loosely attached to a hook on the front of the platform to prevent the animal from turning around. […] For each dosing group, one set of animals (N=6) was dosed for 60 minutes each day for 28 consecutive days.

[3] = 28-day repeat dose inhalation toxicokinetics, study 7300225; assay type: in vivo, SD rats; settings: average of D28
Text: Two sets of animals were used to perform the toxicokinetic measurements for this study.

[4] = Observation for adverse effects / clinical signs after OPA dosing; settings: for adverse effects / clinical signs: 1 mg/kg, up to 72 h after dosing
Description: The oral dose was formulated using pharmaceutical oral liquid formulation Rapamune Oral® (Pfizer). […] An additional group of 6 mice received vehicle only (10% ethanol in water). […] At the 72-h necropsy, blood was obtained by cardiac puncture and the lungs removed.
The time of dosing was recorded as 0. Animals in groups 2 and 3 were euthanized at 1 h after dosing.

[5] = Rapamycin in lung and blood by LC-MS/MS after oropharyngeal aspiration (OPA) or oral gavage; assay type: in vivo, male C57BL/6 mice
Description: Test Chemical Preparation: Evans Blue was prepared at 0.5% w/v in sterile distilled water. Rapamune Oral® was administered as supplied for oral dosing.
Dosing: Each animal was weighed prior to dosing to determine the amount of dose to be administered. A single gavage dose was administered using a […], glass syringe (Hamilton, Reno, Nev.) fitted with a ball-tipped 20-G stainless steel gavage dosing needle (Popper & Sons Inc., New Hyde Park, N.Y.). The dose administered to each animal was determined from the weight of the full syringe minus that of the empty syringe. The dosing time was recorded. Dosing of animals was spaced apart to allow blood collection at the appropriate times. The dose formulations administered to each group are shown below.
Each mouse was anesthetized with isoflurane, and restrained with the mouth open. The tongue was held to one side of the mouth with forceps, and the dose was slowly injected into the distal part of the oral cavity. The nostrils were covered with a finger for two breaths to ensure aspiration (Rao et al., 2003).
Collection of Blood and Lung Samples: At study termination (1 or 72 h after dosing), mice were anesthetized by exposure to CO2, and blood was collected by cardiac puncture with dipotassium EDTA as anticoagulant. Lung tissue was excised and divided into the right and left lung. The left lung was used for analysis, and the right lung flash frozen in liquid nitrogen and stored at −70° C. for further analysis.
Triamcinolone was used as internal standard.
Lung homogenate was prepared by homogenization of weighed lung samples with 2.8-mm ball bearings in a homogenizer with tissue+deionized water (1:3 w/v) in a SPEX SamplePrep 2010 Geno/Grinder.
The concentrations of standards were arranged so that each standard came from an alternate stock standard. A six-point calibration curve, each made in triplicate, was employed for analyte quantitation. A simple linear regression model with or without weighting was employed for curve fitting. The concentration range determined was from 1-2000 ng/mL in blood and 2-2000 ng/mL in lung homogenate.
Thirty (30) μL of matrix, 30 μL of spiking solution (methanol for blanks and samples), 10 μL Internal standard solution (in MeOH) and 90 μL of MeOH were pipetted into microcentrifuge tubes, vortexed briefly, then centrifuged for 6 min at 10,000 RPM at −4° C. Aliquots (90 μL) of supernatant were transferred to LC vial inserts, and then analyzed by LC-MS/MS (Table 2).

[6] = system: phosphorylated S6 protein (mTOR activity); assay: Phosphorylated S6 in mouse lung after OPA or oral rapamycin; assay type: in vivo, C57bl/6 mice
Text: To validate this approach, we used the presence of phosphorylated S6 protein in murine lung tissue as a biomarker for mTOR activity. In the mouse strain used (C57b1/6), the mouse airway and alveolar epithelial cells have constitutively active (phosphorylated, “p”) S6 protein. The S6 protein is typically phosphorylated by S6K which is downstream of mTORC1 and is activated, for example, downstream of growth factors such as epidermal growth factor (EGF), AKT, ERK, and RSK. mTORC1 promotes cell growth and proliferation by stimulating anabolic processes such as biosynthesis of lipids, proteins, and organelles, and suppressing catabolic processes such as autophagy.

[7] = Extrapolation of rat and dog inhalation data to human dosing; settings: extrapolated
[8] = system: TSC2 deficient TRI-AML101 cell line; assay: Cell viability, 10 point dose response, CellTiter-Glo; settings: 72 hours after compound addition, relative to DMSO control (FIG. 7, bottom)
Description: Two thousand cells in 50 uL of growth media (DMEM, 10% FBS, and 1% Penicillin/Streptomycin) were plated per well in a 96 well plate. […] 72 hours after compound addition, relative cell viability was determined by CellTiter-Glo® luminescence assay (Promega) and expressed as a percentage relative to vehicle (DMSO) treated control cells.

[9] = 24 hours after 14th dose, cited from earlier work
[10] = sirolimus in lymphangioleiomyomatosis; cited from earlier work
[11] = in vivo; settings: Sprague-Dawley, rat, inhaled
[12] = emitted dose 160 ug, repeat inhaled daily dose 40 ug
[13] = emitted dose 424 ug, repeat inhaled daily dose 106 ug
[14] = emitted dose 50 ug, repeat inhaled daily dose 5 ug
[15] = emitted dose 2850 ug, repeat inhaled daily dose 285 ug
[16] = emitted dose 87 ug, repeat inhaled daily dose 35 ug
[17] = emitted dose 175 ug, repeat inhaled daily dose 70 ug

CO[C@H]1C[C@@H]2CC[C@@H](C)[C@@](O)(O2)C(=O)C(=O)N2CCCC[C@H]2C(=O)O[C@H]([C@H](C)C[C@@H]2CC[C@@H](O)[C@H](OC)C2)CC(=O)[C@H](C)/C=C(\C)[C@@H](O)[C@@H](OC)C(=O)[C@H](C)C[C@H](C)/C=C/C=C/C=C/1C [Rapamycin, (3 S,6R,7E,9R,10R,12R,14S,15E,17E,19E,21S,23 S,26R,27R,34aS)-9,10,12,13,-14,21,22,23,24,25,26,27,32,33,34,34a-hexadecahydro-9,27-dihydroxy-3-[(1R)-2-[(1S,3R,4R)-4-hydroxy-3-methoxycyclohexyl]-1-methylethyl]-10,21-dimethox-y-6,8,12,14,20,26-hexamethyl-23,27-epoxy-3H-pyrido[2,1-c][1,4]oxaazacyclohentriacontine-1,5,11,28,29(4H,6H,31H)-pentone]
concentration at 2 h post-dosing ([1]; Sprague-Dawley, rat, lung, inhaled, target dose 11 ug Day 1, 2 hr post-dosing, read-out: Avg Lung rapa): 250 ng/g | concentration at 4 h post-dosing ([1]; Sprague-Dawley, rat, lung, inhaled, target dose 11 ug Day 1, 4 hr post-dosing, read-out: Avg Lung rapa): 192 ng/g | concentration at 12 h post-dosing ([1]; Sprague-Dawley, rat, lung, inhaled, target dose 11 ug Day 1, 12 hr post-dosing, read-out: Avg Lung rapa): 95 ng/g | Avg Lung rapa ([1]; target dose 11 ug Day 1, immediate post-dosing): 560 ng/g | Avg Lung rapa ([1]; target dose 11 ug Day 1, midway dosing): 462 ng/g | concentration at 24 h ([2]; inhaled, 106 ug): 61 ng/g | concentration at 24 h ([2]; emitted dose 160 ug, repeat inhaled daily dose 40 ug, after 28 days): 32 ng/g | Blood trough levels [2, 12]: 1.9 ng/mL | Max blood levels [2, 12]: 7.4 ng/mL | Blood trough levels [2, 13]: 5.9 ng/mL | Max blood levels [2, 13]: 27.3 ng/mL | Blood trough levels [3, 14]: 2 ng/mL | Max blood levels [3, 14]: 7.6 ng/mL | Max blood levels ([3]; emitted dose 1425 ug, repeat inhaled daily dose 143 ug): 70.5 ng/mL | Blood trough levels [3, 15]: 21.0 ng/mL | Max blood levels [3, 15]: 77.8 ng/mL | adverse effects / clinical signs [4]: No significant clinical signs were observed | adverse effects / clinical signs ([4]; listed as rapamycin): No adverse effects were observed | acute toxicity to lung tissue ([4]; OPA 1 mg/kg, relatively high amounts in lung): not acutely toxic to lung tissue | rapamycin in blood, in words ([5]; OPA 1 mg/kg, 72 h): below the limit of quantitation; also recorded: undetectable | Blood (ng/ml) ([5]; OPA 1 mg/kg, 72 h post-dose, individual mice): <ELOQ | Lung (ng/g tissue) ([5]; gavage (Rapamune Oral) 1 mg/kg, 1 h post-dose, individual mice, 1 mg/kg): <LOQ | rapamycin in lung or blood, in words ([5]; oral (gavage) 1 mg/kg, 72 hrs): undetectable | level of phosphorylated S6 (pS6) in lung ([6]; OPA 1 mg/kg, 1 hr (FIG. 8A)): reduced substantially | level of phosphorylated S6 (pS6) in lung ([6]; OPA 1 mg/kg, 72 hr (FIG. 8A)): remained suppressed | level of phosphorylated S6 (pS6) in lung ([6]; oral gavage 1 mg/kg, 1 hr (FIG. 8A)): reduced substantially | Blood trough levels [7, 16]: 0.15 ng/mL | Lung 24 hr trough levels [7, 16]: 2 ng/g | Max blood levels [7, 16]: 0.65 ng/mL | Blood trough levels [7, 17]: 0.3 ng/mL | Lung 24 hr trough levels [7, 17]: 4 ng/g | Max blood levels [7, 17]: 1.3 ng/mL | lowest concentration at which viability was inhibited [8]: 0.05 nM | Rapamycin in Blood ([9]; IV 0.04 mg/kg/day): 9.4 ng/mL | Rapamycin in Lung ([9]; IV 0.04 mg/kg/day): 219 ng/g | Rapamycin in Blood ([9]; IV 0.08 mg/kg/day): 15.0 ng/mL | Rapamycin in Lung ([9]; IV 0.08 mg/kg/day): 457 ng/g | Rapamycin in Blood ([9]; IV 0.40 mg/kg/day): 19.6 ng/mL | Rapamycin in Lung ([9]; IV 0.40 mg/kg/day): 868 ng/g | Rapamycin in Blood ([9]; oral 0.4 mg/kg/day): 0.8 ng/mL | Rapamycin in Lung ([9]; oral 0.4 mg/kg/day): 42 ng/g | Rapamycin in Blood ([9]; oral 0.8 mg/kg/day): 2.1 ng/mL | Rapamycin in Lung ([9]; oral 0.8 mg/kg/day): 59 ng/g | blood concentrations reported [10]: 5 to 15 ng/mL | concentration at 12 h ([11]; lung, 0.036 mg/kg/day): 95 ng/g | concentration at 12 h ([11]; lung, 1 mg/kg/day): ~14800 ng/g | concentration at 12 h ([11]; whole blood, 0.036 mg/kg/day): 4 ng/mL | concentration at 12 h ([11]; whole blood, 1 mg/kg/day): 645 ng/mL
